In article PMC7494739, “Evaluation of Artificial Intelligence in Participating Structure-Based Virtual Screening for Identifying Novel Interleukin-1 Receptor Associated Kinase-1 Inhibitors” (Frontiers in Oncology, 2020):

Key:
IRAK1 [1] = settings: Figure 1; cited from earlier work
IRAK1 kinase = IRAK1 kinase (Homo sapiens, UniProt P51617); test: IRAK1 bioactivity test (mobility shift assay); assay type: biochemical; settings: for IC50: Table 3, initial concentration 100 μM, serial 10-fold dilution to 1 nM
IRAK1 [2] = settings: Figure 1; cited from earlier work; remark: listed apart in the source

Chain of IRAK1 kinase (P51617 whole entry): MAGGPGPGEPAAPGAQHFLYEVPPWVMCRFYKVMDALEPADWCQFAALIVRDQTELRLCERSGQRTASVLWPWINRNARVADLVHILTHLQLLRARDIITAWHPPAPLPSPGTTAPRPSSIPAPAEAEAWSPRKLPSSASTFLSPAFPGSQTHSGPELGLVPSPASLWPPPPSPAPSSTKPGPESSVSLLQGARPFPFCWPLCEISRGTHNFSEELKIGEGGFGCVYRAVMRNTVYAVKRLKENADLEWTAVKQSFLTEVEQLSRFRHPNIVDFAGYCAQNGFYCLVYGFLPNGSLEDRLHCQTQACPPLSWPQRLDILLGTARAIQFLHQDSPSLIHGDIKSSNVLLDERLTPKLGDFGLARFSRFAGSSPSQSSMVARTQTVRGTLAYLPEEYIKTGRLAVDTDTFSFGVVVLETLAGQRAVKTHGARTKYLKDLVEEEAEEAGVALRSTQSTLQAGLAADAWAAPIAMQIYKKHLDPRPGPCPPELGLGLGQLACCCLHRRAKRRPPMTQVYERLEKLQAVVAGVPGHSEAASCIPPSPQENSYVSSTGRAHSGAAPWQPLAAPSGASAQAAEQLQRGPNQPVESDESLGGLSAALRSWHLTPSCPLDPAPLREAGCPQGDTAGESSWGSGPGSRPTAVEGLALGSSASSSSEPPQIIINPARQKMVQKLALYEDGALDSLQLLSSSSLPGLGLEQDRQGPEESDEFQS

| SMILES | IC50 (IRAK1 [1]) [nM] | IC50 (IRAK1 kinase) [nM] | other results |
| --- | --- | --- | --- |
| O=C(Nc1nc2ccccc2n1CCN1CCOCC1)c1cccc([N+](=O)[O-])c1 [benzimidazole derivative 1] | 300 |  |  |
| COc1ccc(C(=O)c2coc3ccc(OCC(N)=O)cc23)cc1OC [compound 5] |  | 23700 |  |
| NC(=O)COc1ccc2occ(C(=O)c3ccc(Cl)cc3)c2c1 [compound 4] |  | 18000 |  |
| CC(C)NC(=O)[C@H]1CC[C@@H](n2/c(=N/C(=O)c3cc(F)cc(F)c3)[nH]c3ccc(CN4CCC(C(C)(C)O)CC4)cc32)CC1 [ALK inhibitor 2] |  |  | Kd (IRAK1 [2]): 5.6 nM |
| C1=C/COCc2cc(ccc2OCCN2CCCC2)Nc2nccc(n2)-c2cccc(c2)COC/1 [JAK/FLT3 inhibitor 3, Pacritinib] | 13.6 |  |  |
| COc1cccc(Nc2nnc(-c3cc4ccc(O)cc4oc3=O)s2)c1 [K231-1211] |  |  | Inhibition/% (IRAK1 kinase; compound at 20 μM): -10.5% |
